Results taken from PubChem BioAssay AID1919017 (Molecular Pharmacology Branch, DTP, NCI, 2023).
Where “and” joins values, the source holds several entries; their conditions need not be identical. Equal entries are not always repeated.

Test system: SW1271 complex spheroids with HUVEC/MSC, growth, % test/control
Test: Anticancer human tumor SW1271 cell line growth inhibition [AhR];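 also: spheroids exposed to agents for 7 days before readout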
Details: for viability, T/C: stronger effect = lower value
Summary of the method: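 Agents were dosed in half-log steps down from roughly clinical Cmax, or from 10 microM where Cmax was unknown, alone and with AhR antagonists. Read-out: percent test/control growth of tumor spheroids containing HUVEC and MSC stromal cells.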

[1] = curve of first compound, second compound 0.1 µM
[2] = curve of first compound, second compound 0.316 µM
[3] = curve of first compound, second compound 1 µM
[4] = curve of first compound, second compound 3.16 µM
[5] = curve of first compound, second compound 10 µM
[6] = second compound 0.1 µM, first compound 0.0316 µM
[7] = second compound 0.1 µM, first compound 0.1 µM
[8] = second compound 0.1 µM, first compound 0.316 µM
[9] = second compound 0.1 µM, first compound 1 µM
[10] = second compound 0.1 µM, first compound 3.16 µM
[11] = second compound 0.1 µM, first compound 10 µM
[12] = second compound 0.316 µM, first compound 0.0316 µM
[13] = second compound 0.316 µM, first compound 0.1 µM
[14] = second compound 0.316 µM, first compound 0.316 µM
[15] = second compound 0.316 µM, first compound 1 µM
[16] = second compound 0.316 µM, first compound 3.16 µM
[17] = second compound 0.316 µM, first compound 10 µM
[18] = second compound 1 µM, first compound 0.0316 µM
[19] = second compound 1 µM, first compound 0.1 µM
[20] = second compound 1 µM, first compound 0.316 µM
[21] = second compound 1 µM, first compound 1 µM
[22] = second compound 1 µM, first compound 3.16 µM
[23] = second compound 1 µM, first compound 10 µM
[24] = second compound 3.16 µM, first compound 0.0316 µM
[25] = second compound 3.16 µM, first compound 0.1 µM
[26] = second compound 3.16 µM, first compound 0.316 µM
[27] = second compound 3.16 µM, first compound 1 µM
[28] = second compound 3.16 µM, first compound 3.16 µM
[29] = second compound 3.16 µM, first compound 10 µM
[30] = second compound 10 µM, first compound 0.0316 µM
[31] = second compound 10 µM, first compound 0.1 µM
[32] = second compound 10 µM, first compound 0.316 µM
[33] = second compound 10 µM, first compound 1 µM
[34] = second compound 10 µM, first compound 3.16 µM
[35] = second compound 10 µM, first compound 10 µM
[36] = second compound 0.1 µM, first compound 0.00316 µM
[37] = second compound 0.1 µM, first compound 0.01 µM
[38] = second compound 0.316 µM, first compound 0.00316 µM
[39] = second compound 0.316 µM, first compound 0.01 µM
[40] = second compound 1 µM, first compound 0.00316 µM
[41] = second compound 1 µM, first compound 0.01 µM
[42] = second compound 3.16 µM, first compound 0.00316 µM
[43] = second compound 3.16 µM, first compound 0.01 µM
[44] = second compound 10 µM, first compound 0.00316 µM
[45] = second compound 10 µM, first compound 0.01 µM

SMILES | IC50 [1] [nM] | IC50 [2] [nM] | IC50 [3] [nM] | IC50 [4] [nM] | IC50 [5] [nM] | viability, T/C [6] [%] | viability, T/C [7] [%] | viability, T/C [8] [%] | viability, T/C [9] [%] | viability, T/C [12] [%] | viability, T/C [13] [%] | viability, T/C [14] [%] | viability, T/C [15] [%] | viability, T/C [18] [%] | viability, T/C [19] [%] | viability, T/C [20] [%] | viability, T/C [24] [%] | viability, T/C [25] [%] | viability, T/C [30] [%] | viability, T/C [31] [%] | other results
O=C(C=Cc1cccc(S(=O)(=O)Nc2ccccc2)c1)NO + Cc1cncc(-c2nc(NCCc3c[nH]c4ccccc34)c3ncn(C(C)C)c3n2)c1 | 1880 | 1390 | 2090 | 1460 | 210 | 97.2 | 93.9 | 83.2 | 68.3 | 104 | 102 | 96.8 | 61.9 | 97.4 | 97.8 | 84.5 | 107 | 115 | 49.9 | 53.5 | viability, T/C [10]: 35.5%; viability, T/C [11]: 16.9%; viability, T/C [16]: 20.2%; viability, T/C [17]: 16.6%; viability, T/C [21]: 65.4%; viability, T/C [22]: 41.7%; viability, T/C [23]: 15.9%; viability, T/C [26]: 97.7%; viability, T/C [27]: 57.5%; viability, T/C [28]: 33.7%; viability, T/C [29]: 16.6%; viability, T/C [32]: 53.1%; viability, T/C [33]: 39.8%; viability, T/C [34]: 39.2%; viability, T/C [35]: 25.5%
CC1COCCN1c1cc(C2(S(C)(=N)=O)CC2)nc(-c2ccnc3[nH]ccc23)n1 (configuration not stated) + Cc1cncc(-c2nc(NCCc3c[nH]c4ccccc34)c3ncn(C(C)C)c3n2)c1 | > 10000 | > 10000 | > 10000 | > 10000 | < 31.6 | 87.4 | 103 | 85.7 | 88.1 | 85.5 | 103 | 106 | 103 | 83.7 | 87.7 | 88.7 | 83 | 93 | 51.6 | 46.9 | viability, T/C [10]: 85.3%; viability, T/C [11]: 67.8%; viability, T/C [16]: 71.7%; viability, T/C [17]: 52.6%; viability, T/C [21]: 84.5%; viability, T/C [22]: 90.2%; viability, T/C [23]: 62.7%; viability, T/C [26]: 93.6%; viability, T/C [27]: 71.1%; viability, T/C [28]: 69.4%; viability, T/C [29]: 59.3%; viability, T/C [32]: 45.5%; viability, T/C [33]: 40%; viability, T/C [34]: 43.3%; viability, T/C [35]: 28.9%
CC[C@@]1(O)C(=O)OCc2c1cc1n(c2=O)Cc2cc3c(CN(C)C)c(O)ccc3nc2-1 |  |  |  |  |  |  |  |  |  |  |  |  |  |  |  |  |  |  |  |  | viability, T/C (compound 0.000316 µM): 105% and 80.9% and 102%; viability, T/C (compound 0.001 µM): 108% and 64.1% and 91.1%; viability, T/C (compound 0.00316 µM): 80.9% and 87% and 83.4%; viability, T/C (compound 0.01 µM): 91.5% and 70% and 96.8%; viability, T/C (compound 0.0316 µM): 89% and 65% and 78.6%; viability, T/C (compound 0.1 µM): 74.6% and 45.2% and 70%; IC50 (curve of compound): > 100 nM and 75.4 nM
COc1cccc2c1C(=O)c1c(O)c3c(c(O)c1C2=O)CC(O)(C(=O)CO)CC3OC1CC(N)C(O)C(C)O1 (configuration not stated) + Cc1cncc(-c2nc(NCCc3c[nH]c4ccccc34)c3ncn(C(C)C)c3n2)c1 | 332 | 280 | 380 | 258 | < 31.6 | 74 | 79.5 | 51.9 | 6.7 | 81.5 | 72.4 | 47.1 | 2.96 | 89.5 | 89 | 58.8 | 95 | 77.8 | 48 | 38.4 | viability, T/C [10]: 3.78%; viability, T/C [11]: 5.75%; viability, T/C [16]: 3.17%; viability, T/C [17]: 6.88%; viability, T/C [21]: 1.94%; viability, T/C [22]: 4.32%; viability, T/C [23]: 4.87%; viability, T/C [26]: 46.4%; viability, T/C [27]: 1.86%; viability, T/C [28]: 5.28%; viability, T/C [29]: 7.13%; viability, T/C [32]: 24.3%; viability, T/C [33]: 3.36%; viability, T/C [34]: 9.24%; viability, T/C [35]: 7.74%
Cn1ncnc1C1c2n[nH]c(=O)c3cc(F)cc(c23)NC1c1ccc(F)cc1 (configuration not stated) + Cc1cncc(-c2nc(NCCc3c[nH]c4ccccc34)c3ncn(C(C)C)c3n2)c1 | > 100 | > 100 | > 100 | > 100 | > 100 | 110 | 107 |  |  | 77.4 | 91 |  |  | 94.7 | 83.3 |  | 98.6 | 94.7 | 61.3 | 40.7 | viability, T/C (second compound 0.1 µM, first compound 0.000316 µM): 111%; viability, T/C (second compound 0.1 µM, first compound 0.001 µM): 103%; viability, T/C [36]: 94.4%; viability, T/C [37]: 119%; viability, T/C (second compound 0.316 µM, first compound 0.000316 µM): 96.2%; viability, T/C (second compound 0.316 µM, first compound 0.001 µM): 90.7%; viability, T/C [38]: 88.6%; viability, T/C [39]: 98.2%; viability, T/C (second compound 1 µM, first compound 0.000316 µM): 91.8%; viability, T/C (second compound 1 µM, first compound 0.001 µM): 103%; viability, T/C [40]: 92.4%; viability, T/C [41]: 95.8%; viability, T/C (second compound 3.16 µM, first compound 0.000316 µM): 103%; viability, T/C (second compound 3.16 µM, first compound 0.001 µM): 105%; viability, T/C [42]: 88.2%; viability, T/C [43]: 92%; viability, T/C (second compound 10 µM, first compound 0.000316 µM): 44.9%; viability, T/C (second compound 10 µM, first compound 0.001 µM): 43.8%; viability, T/C [44]: 86.5%; viability, T/C [45]: 53.5%
CC1COCCN1c1cc(C2(S(C)(=N)=O)CC2)nc(-c2ccnc3[nH]ccc23)n1 (configuration not stated) + Cc1ccccc1N=Nc1ccc(NC(=O)c2ccnn2C)c(C)c1 | > 10000 | > 10000 | > 10000 | > 10000 | > 10000 | 87.6 | 105 | 90.8 | 119 | 100 | 95.2 | 96.9 | 106 | 96.8 | 111 | 106 | 97.5 | 112 | 102 | 91.8 | viability, T/C [10]: 89.4%; viability, T/C [11]: 52.5%; viability, T/C [16]: 67.6%; viability, T/C [17]: 58.8%; viability, T/C [21]: 89.6%; viability, T/C [22]: 90.4%; viability, T/C [23]: 56.7%; viability, T/C [26]: 104%; viability, T/C [27]: 96.7%; viability, T/C [28]: 70%; viability, T/C [29]: 61.1%; viability, T/C [32]: 104%; viability, T/C [33]: 95.4%; viability, T/C [34]: 68.1%; viability, T/C [35]: 54.9%
CC1COCCN1c1cc(-c2ccnn2C)c2ccnc(-c3ccn[nH]3)c2n1 (configuration not stated) + CC(CO)NC(=O)c1cc(-c2ccc(Cl)cc2)nn(-c2cnn(C)c2)c1=O | 916 | 867 | > 1000 | 694 | 543 | 94.4 | 82.1 | 67.8 | 48.5 | 81.7 | 84.3 | 70 | 46.8 | 86.7 | 80.7 | 65.7 | 75.5 | 75.9 | 68.5 | 66.6 | viability, T/C [36]: 102%; viability, T/C [37]: 97.5%; viability, T/C [38]: 92.5%; viability, T/C [39]: 96.1%; viability, T/C [40]: 110%; viability, T/C [41]: 98.2%; viability, T/C [21]: 49.1%; viability, T/C [42]: 84.5%; viability, T/C [43]: 79.2%; viability, T/C [26]: 57.2%; viability, T/C [27]: 45.6%; viability, T/C [44]: 88.9%; viability, T/C [45]: 75%; viability, T/C [32]: 47.9%; viability, T/C [33]: 47.6%
